Source: patent publication US7501395B2, “Method of screening for antianxiety drugs” (Eisai R & D Management Co., Ltd., priority 2005, dated 2009)
Ends that are not written are not given here.

Experiments:
C57BL/6NCrj mice [1] = experiment: light-dark exploration test, SB-334867 (Example 3); assay type: in vivo
Method: Specifically, two types of solutions, 0.50 nmol/μl and 1.50 nmol/μl, were prepared. The artificial cerebrospinal fluid (aCSF) was used alone as a negative control.
The position of the inserted cannula was also confirmed in the same manner.
The following three subject groups were tested.
The test apparatus consisted of a dark compartment (depth 10 cm×width 15 cm length 20 cm) and a light compartment (depth 20 cm×width 15 cm×length 20 cm). Specifically, the dark compartment was made of a black plastic material with a lid on top whereas the light compartment was made of a white plastic material with an open top. Both of the light and dark compartments were connected via a black plastic tunnel (depth 7 cm×width 10 cm×length 4.5 cm) that allows access to both compartments.
At the end of the test, the total time spent in the light compartment was calculated for each test animal, and the results were expressed as “average time+SEM” for each test subject (see FIG. 4). […]

C57BL/6NCrj mice [2] = experiment: light-dark exploration test, orexin-A (Example 1); assay type: in vivo; settings: for time spent in the light compartment, difference from the aCSF administration group: intracerebroventricular, mice
Method: C57BL/6NCrj mice (male, 25 to 30 g, Charles River, Japan) were used for the light-dark exploration test. Ten mice were bred per cage.
(§1) Orexin-A (Peptide Institute Inc., Osaka, Japan) was dissolved in an artificial cerebrospinal fluid (aCSF: glucose 10 mM, KCl 2 mM, NaCl 115 mM, CaCl2 2.5 mM, MgSO4 1.2 mM, NaHCO3 25 mM, KH2PO4 2.2 mM; pH 7. 4) to prepare solutions at various concentrations (0.1 nmol/μl, 0.3 nmol/μl, 1.0 nmol/μl, 3.0 nmol/μl). The artificial cerebrospinal fluid was used alone as a negative control.
(§2) A stainless-steel injection needle was used that can be inserted into the lateral ventricle to a point 0.5 mm deeper than the tip of the guide cannula for intracerebroventricularly administering an orexin-A solution. The amounts of orexin-A solution were 2 μl and 5 μl for mice and rats, respectively. A microsyringe (705N 50 μl, Hamilton, Nevada, USA) was connected to a reflux pump (CMA100, BAS Inc., Tokyo, Japan) for injection at a precisely constant rate (1 μl/min for mice and 2.5 μl/min for rats).
The following four subject groups were tested.
The test apparatus consisted of two compartments, namely a dark compartment (depth 10 cm×width 15 cm×length 20 cm) and a light compartment (depth 20 cm×width 15 cm×length 20 cm). Specifically, the dark compartment was made using a black plastic material with a lid on top whereas the light compartment was made using a white plastic material with an open top. Both of the light and dark compartments were connected via a black plastic tunnel (depth 7 cm×width 10 cm×length 4.5 cm) that allows access to both compartments.
The illumination of the test room was set to 150 lux. The test animals were habituated to an illumination of 10 lux in another room for more than 3 hours before starting the test (except upon administration). This test was conducted between 13:00 to 16:00. […]
At the end of the test, the total time spent in the light compartment was calculated for each test animal, and the results were expressed as “average time+SEM” (see FIG. 1). […]

WISTAR rats = experiment: elevated plus maze test, orexin-A (Example 1); assay type: in vivo; settings: intracerebroventricular administration to rats, 0.1 to 3.0 nmol, 15 minutes before test; 5 min test
Method: WISTAR rats (male, 300 to 400 g, Charles River, Japan) were used for the elevated plus maze test. Two […] were bred per cage.
as §1, §2
The following five subject groups were tested. […]
At the end of the test, the total time spent in the open arms was calculated for each test animal, and the results were expressed as “average time+SEM” for each test subject (see FIG. 2). […]

C57BL/6NCrj mice [3] = experiment: elevated plus maze test, orexin-A (Example 2); assay type: in vivo; settings: 1.0 nmol orexin-A, intracerebroventricular, vs aCSF administration group, p<0.05
Method: C57BL/6NCrj mice (male, 25 to 30 g, Charles River, Japan) were used. Ten mice were bred per cage.
as §1, with “7.4)” for “7. 4)”, “a solution” for “solutions”, “a predetermined concentration (1.0” for “various concentrations (0.1 nmol/μl, 0.3 nmol/μl, 1.0 nmol/μl, 3.0”
A stainless-steel injection needle was used that can be inserted into the lateral ventricle at a point 0.5 mm deeper than the tip of the guide cannula for intracerebroventricular administration of the orexin-A solution. The amount of the orexin-A solution was 2 μl. A microsyringe (705N 50 μl, Hamilton, Nevada, USA) was connected to a reflux pump (CMA100, BAS Inc., Tokyo, Japan) for injection at a precisely constant rate (1 μl/min).
The following two subject groups were tested.
The elevated plus maze test was basically carried out according to the test procedure described in S. Pellow et al. (J. Neurosci. Methods, vol. 14 (1985), p-149-167). […]
At the end of the test, the total time spent in the open arms was calculated for each test animal, and the results were expressed as “average time+SEM” for each test subject (see FIG. 3). […]

mouse = settings: intracerebroventricular administration to a mouse; cited from earlier work
orexin receptor-2 (OX2R) = target: T1, orexin receptor-2 (OX2R) (Homo sapiens, UniProt O43614); settings: orexin-A compared with orexin-B; cited from earlier work
T1 sequence (O43614 1-444): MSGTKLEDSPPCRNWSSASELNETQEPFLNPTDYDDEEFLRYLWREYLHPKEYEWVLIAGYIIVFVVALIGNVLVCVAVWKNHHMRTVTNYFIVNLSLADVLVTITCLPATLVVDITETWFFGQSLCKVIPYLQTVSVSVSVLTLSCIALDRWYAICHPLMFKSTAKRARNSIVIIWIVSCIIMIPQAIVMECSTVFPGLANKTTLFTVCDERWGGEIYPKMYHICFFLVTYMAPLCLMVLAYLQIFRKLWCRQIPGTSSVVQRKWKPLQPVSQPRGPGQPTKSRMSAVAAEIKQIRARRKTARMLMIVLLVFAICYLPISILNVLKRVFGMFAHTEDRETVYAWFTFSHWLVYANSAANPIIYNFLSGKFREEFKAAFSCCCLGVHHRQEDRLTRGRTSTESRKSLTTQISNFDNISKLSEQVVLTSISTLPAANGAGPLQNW

With `Cc1nc2ccc(NC(=O)Nc3ccnc4cccnc34)cc2o1` [SB-334867, 1-(2-methylbenzoxazole 6-yl)-3-[1,5]naphthyridine-4-yl urea] the “time spent in the light compartment” value (C57BL/6NCrj mice [1]; intracerebroventricular administration to mice, 1 nmol and 3 nmol, 15 minutes before test, 5 min test) was “lengthened time spent in the light compartment dosage-dependently” and the “assessment result: action on anxiety” value (C57BL/6NCrj mice [1]; light-dark exploration test, mice, intracerebroventricular) was “anxiogenic action”.
In the case of “orexin-A: neuropeptide, endogenous orexin receptor ligand; 33 amino acids with two disulfide bonds; from Peptide Institute Inc. (QPLPDCCRQKTCSCRLYELLHGAGNHAAGILTL; disulfide (positions not given here); ends not checked; also: two disulfide bonds, pairing not given here; UniProt O43612 34-66, looked up)”, the “time spent in the light compartment, difference from the aCSF administration group” value (C57BL/6NCrj mice [2]; 0.1 nmol orexin-A administration group) is reported as “significant difference”, the “time spent in the light compartment, difference from the aCSF administration group” value (C57BL/6NCrj mice [2]; 1.0 nmol orexin-A administration group) is reported as “significant difference” and the “time spent in the light compartment” value (C57BL/6NCrj mice [2]; intracerebroventricular administration to mice 15 minutes before test, 5 min test, vs aCSF) is reported as “significantly shortened”. For the same molecule, the “time spent in the open arms” value (WISTAR rats) was “shortened volume-dependently”, the “time spent in the open arms (elevated plus maze test, FIG. 3)” value (C57BL/6NCrj mice [3]) was “significantly shortened” and the “stress-like behaviors such as face washing, grooming, searching and burrowing” value (mouse) was “increases”.
In the case of “orexin-B: neuropeptide, endogenous orexin receptor ligand comprising 28 amino acids”, the “binding affinity of OX2R” value (orexin receptor-2 (OX2R)) is listed as “generally the same level”.
